Legend:
[1] = tested on: mice; test: Inflammatory pain: chronic inflammatory pain induced by Complete Freund's Adjuvant (CFA), von Frey test; type: in vivo; details: 60 min after CFA
Procedure: When 50% CFA was intraplantarly injected into the mouse, paw edema and chronic mechanical hyperalgesia were developed in the tested mice. Different dosages of the anthra[2,1-c][1,2,5]thiadiazole-6,11-dione compound, 0.22, 2.2, 22 μg/kg were intraplantarly injected into mouse hindpaw, followed by 50% CFA injection. At 60 minutes after the CFA injection, the pain sensitivity of the mice was measured by mechanical stimulation using von Frey filaments.
(§1) 2.2 μg/kg of the compound was administered to the mice by intraplantar injection about 5 minutes prior to the injection of the acid solution. An hour after the injection of the acid, the hypersensitivity of the mice to mechanical stimuli was measured using von Frey filaments (Touch-Test North Coast Medical, Inc., Margan Hill, Calif.). […] 60 minutes after the mice were administered with the compound, the mechanical hyperalgesia was assessed through the measurement of paw withdrawal frequencies by a sequential series of von Frey filaments of weights 0.6, 1.0, 1.4, 2.0 and 4.0 g applied perpendicularly to the plantar surface of the paw. […] The occurrence of paw withdrawal resulting from the stimulation or removing the stimulation for each trial was quantified as a percentage response frequency for each monofilament. When the frequency was more than 50%, the weight of the von Frey filaments was determined as the paw withdrawal threshold (PWT). […]

[2] = tested on: CD-1 mice; test: Nociceptive pain: acute pain induced by acid solution, von Frey mechanical hyperalgesia test; type: in vivo
Procedure: Anthra[2,1-c][1,2,5]thiadiazole-6,11-dione (NSC745885, B1) was intraplantarly injected into the right hind paws of 8 to 12-week-old CD-1 mice. 5 minutes after the injection, 25 μL of pH 5.0 acid solution was intraplantarly injected into each of the mice. About 60 minutes later, the mice were directly tested with the hypersensitivity to mechanical stimuli using von Frey filaments (Touch-Test North Coast Medical, Inc., Margan Hill, Calif.). The control group was conducted under the same conditions except it was treated with a compound-free saline. […]
as §1, with “monofilament.” for “monofilament. When the frequency was more than 50%, the weight of the von Frey filaments was determined as the paw withdrawal threshold (PWT).”

[3] = tested on: human cancer cell lines; details: NCI panel (leukemia, non-small cell lung cancer, colon cancer, etc.); Taiwan Patent application 097112087; cited from earlier work
[4] = tested on: CD-1 mice; test: Neuropathic pain: chronic constriction injury (CCI) of the sciatic nerve, von Frey mechanical hyperalgesia test; type: in vivo
Source text: The assessment of the effectiveness of the compound for alleviating neuropathic pain used the animal model of chronic constriction injury (CCI) of the sciatic nerve, which was established by Bennett and Xie (1988). After the surgery, the mice developed long-lasting hypersensitivity to mechanical stimuli (chronic mechanical hyperalgesia) even being lightly touched. The mechanical hyperalgesia test was used to evaluate the analgesic effect of the compound.
The mice, after a week following the ligation surgery, were intraplantarly injected with a series of different dosages of the compound, 0.22, 2.2, 22 μg/kg or the mice were injected with 2.2 μg/kg of compound intrathecally, or with 44 μg/kg of the compound intraperitoneally. The hypersensitivity to mechanical stimuli was measured using von Frey filaments at 60 minutes after the injection. The mice injected with saline following surgery were the control group and the other mice injected with gabapentin following surgery were the positive control group.
2.2 μg/kg of the compound was administered to the mice by intraplantar injection about 5 minutes prior to the injection of the acid solution. An hour after the injection of the acid, the hypersensitivity of the mice to mechanical stimuli was measured using von Frey filaments (Touch-Test North Coast Medical, Inc., Margan Hill, Calif.). The mice were placed in transparent plastic chambers (10×8×10 cm) on a metal mesh floor at least 30 minutes per day for 2 days to acclimatize them to the testing room prior to the test. 60 minutes after the mice were administered with the compound, the mechanical hyperalgesia was assessed through the measurement of paw withdrawal frequencies by a sequential series of von Frey filaments of weights 0.6, 1.0, 1.4, 2.0 and 4.0 g applied perpendicularly to the plantar surface of the paw. The paw was briefly stimulated with force sufficient to slightly bend the filaments and a single trial consisted of repeated applications of the von Frey filaments five times, each application lasting for about 5 seconds. The occurrence of paw withdrawal resulting from the stimulation or removing the stimulation for each trial was quantified as a percentage response frequency for each monofilament. When the frequency was more than 50%, the weight of the von Frey filaments was determined as the paw withdrawal threshold (PWT). To make sure all the mice were under normal physical conditions, all housing conditions complied with general feeding standards, and the temperature and illumination were maintained in a suitable range.
According to the method described by Bennett and Xie, Pain, 1988, 33, 87-107, 8 to 12-week-old CD-1 mice were subjected to chronic constriction injury (CCI) of the sciatic nerve, which is an animal model inducing chronic neuropathic pain. To anesthetize the mice, each of the mice was injected with 240 mg/kg of 2,2,2-tribromoethanol (Avertin). Then three ligatures were loosely tied around the sciatic nerve of the mouse with chromic gut. The surgical procedure for the Sham (non ligation) control group was identical to that mentioned above except that the sciatic nerves were not ligated. A week after the mice in the experimental (CCI+compound) group had chronic constriction injury of sciatic nerves, the compound was intraplantarly, intrathecally, or intraperitoneally injected into the mice. 60 minutes after the injection, the mice were directly subjected to the hypersensitivity test to mechanical stimuli. The mice under the surgery treated with saline were the CCI group; the mice treated with gabapentin were the positive control (CCI+Gabapentin) group.

Structure (SMILES) | paw withdrawal threshold (PWT) ([1]; 2.2 μg/kg intraplantar 5 min before 50% CFA, CFA only 0.4±0.033 g, control 3.6±0.202 g) [g] | paw withdrawal threshold (PWT) ([1]; 22 μg/kg intraplantar 5 min before 50% CFA) [g] | paw withdrawal threshold (PWT) ([2]; 2.2 μg/kg intraplantar, 5 min before 25 μL pH 5.0 acid solution, measured about 60 min later, acid only 1.1±0.065 g, control 4.0±0 g) [g] | paw withdrawal threshold (PWT) ([2]; sole injection of the compound without the acid solution, did not induce pain) [g] | anti-proliferative activity against human cancer cell lines [3] | development of tolerance to the compound ([4]; 2.2 μg/kg intraplantar once every week for three weeks) | paw withdrawal threshold (PWT) ([4]; 2.2 μg/kg intraplantar once every week for three weeks, first week) [g] | paw withdrawal threshold (PWT) ([4]; 2.2 μg/kg intraplantar once every week for three weeks, second week) [g] | paw withdrawal threshold (PWT) ([4]; 2.2 μg/kg intraplantar once every week for three weeks, third week) [g] | paw withdrawal threshold (PWT) ([4]; 2.2 μg/kg intraplantar, one week after CCI surgery, 60 min after injection, CCI only 0.9±0.23 g, control 3.6±0.29 g) [g] | paw withdrawal threshold (PWT) ([4]; 2.2 μg/kg intrathecal, one week after CCI surgery, 60 min after injection) [g] | paw withdrawal threshold (PWT) ([4]; 22 μg/kg intraplantar, one week after CCI surgery, 60 min after injection) [g] | inhibition of mechanical hyperalgesia induced by CCI of the sciatic nerve ([4]; 44 μg/kg intraperitoneal) | dosage required to inhibit chronic mechanical hyperalgesia caused by CCI ([4]; intraperitoneal injection)
O=C1c2ccccc2C(=O)c2c1ccc1nsnc21 [B1, Anthra[2,1-c][1,2,5]thiadiazole-6,11-dione] | 1.6 ± 0.15 | 3.0 ± 0.45 | 3.3 ± 0.67 | 4.0 ± 0 | shows anti-proliferative activity against human cancer cell lines | no obvious indication that the mice developed tolerance | 2.5 ± 0.8 | 2.0 ± 0 | 2.7 ± 0.67 | 2.5 ± 0.8 | 4.0 | 4.0 ± 0.0 | completely inhibited mechanical hyperalgesia | –
NCC1(CC(=O)O)CCCCC1 [gabapentin, reference compound] | – | – | – | – | – | – | – | – | – | – | – | – | – | at least 15,000 μg/kg
